US8299046B2, “Synthetic triterpenoids and tricyclic-bis-enones for use in stimulating bone and cartilage growth” (Trustees of Dartmouth College, priority 2006, dated 2012)

Key:
iNOS in RAW cells = iNOS in RAW cells stimulated with interferon-γ; type: cell-based
heme oxygenase-1 [1] = experiment: In vivo assay of heme oxygenase-1 induction
[2] = test system: CD11b expression in U937 cells; experiment: CD11b expression in U937 cells; type: cell-based, human
[3] = test system: U937 human leukemia cells; experiment: Proliferation of U937 leukemia cells; type: cell-based
RAW cells = experiment: Inhibition of NO production in RAW cells; type: cell-based
[4] = test system: heme oxygenase-1 in U937 cells; experiment: Heme oxygenase-1 induction in U937 cells; type: cell-based, human
[5] = test system: RMPI 8226 human myeloma cells; experiment: Proliferation of RMPI 8226 myeloma cells; type: cell-based
[6] = test system: MCF-7 breast cancer cell lines; conditions: Honda et al., 2003; cited from earlier work
[7] = test system: neonatal murine calvarial bones; experiment: Neonatal murine calvarial bone formation assay; type: cell-based, ICR Swiss mice; conditions: for alkaline phosphatase in the calvarial culture media: 4 and 7 days (FIGS. 2, 5, 8, 11); for cartilage formation: calvarial cultures, 7 days (FIGS. 3, 6, 9, 12); for new bone formation: calvarial organ culture, 7 days, 40, 200, 1000 nM (FIGS. 1, 4, 10)
Procedure: Neonatal murine calvarial bone formation assay. The technique for studying organ cultures of neonatal murine calvarial bones has been described in detail previously (Traianedes et al., 1999, Mundy et al., 1999). The bones were removed from the calvaria of 4-5 day old ICR Swiss mice, and then cultured in BGJ medium with 0.1% BSA for 7 Days using 4 calvarial bones per group triterpenoids in differing amounts were added for 7 days. Alkaline phosphatase was determined at 4 and 7 days and expressed as arbitrary units of alkaline phosphatase activity. At the end of the experiment the media was saved and assayed for the presence of alkaline phosphatase and the calvaria bones were then fixed overnight in 10% formalin, decalcified in 14% EDTA overnight and were then embedded in paraffin wax. Sections were cut, using a standard microtome, along the midline suture to reveal the sagittal suture and the region posterior to this suture. Four micrometer sections were taken initially and at two sequential […] depths. Sections were placed on coated glass slides (Superfrost plus, Fisher Scientific, Pittsburgh, Pa.) and stained with hematoxylin and eosin. The effects on bone formation were evaluated by morphologic assessment.
Imaging. Digital images across sections of the neonatal murine calvaria were taken from each group. Histomorphometric analysis was performed on these calvarial images using the Osteomeasure System (Osteometrics Inc., Atlanta, Ga.). The total and new bone area (expressed as mm^2×10^−3) was determined on all images across the calvarial section.

[8] = test system: SZP synthesis in superficial zone articular chondrocytes; experiment: Bovine calf stifle joint SZP assay; type: cell-based; conditions: for SZP synthesis at lower concentrations: 0.01 to 1 nM; for SZP synthesis at higher concentrations / SZP synthesis at higher concentrations with concurrent TGF-β1: 100-1000 nM; for SZP synthesis at higher concentrations: Day 3 culture media; for SZP synthesis at higher concentrations with concurrent TGF-β1: concurrent TGF-β1 (4 pM)
Procedure: Bovine calf stifle joint SZP assay. Bovine calf stifle joints were dissected under aseptic conditions. The superficial zone of articular cartilage of femoral condyles (approximately 100 μm thickness) was harvested using a dermatome. The cartilage slices were digested with 0.2% collagenase P in culture medium. Isolated chondrocytes were plated in monolayer at a density of 1×10^5 cells/well (approximately 2.5×10^4 cells/cm^2) in 12-well culture plates and incubated at 37° C. in a moist atmosphere of 5% carbon dioxide and 95% air. Chondrocytes were cultured in D-MEM/F-12 containing 10% fetal bovine serum over night, and then the media were changed in serum-free D-MEM/F-12 supplemented with ITSL (insulin, transferrin, selenious acid, and linoleic acid). Both media contain 100 U/ml penicillin, 100 μg/ml streptomycin, 50 μg/ml ascorbate-2-phosphate, and 0.1% bovine serum albumin. After changing the media with serum into the serum-free chemically defined media, various concentration of synthetic triterpenoids were added into the cell culture. As most of SZP is secreted into the culture medium, supernatants were harvested as samples and the SZP synthesis was analyzed by SDS-PAGE and Western blotting using a monoclonal antibody S6.79, obtained from Rush Medical College, Chicago, Ill. SZP accumulation into the culture medium was also quantified by ELISA using purified SZP as standard. The accumulation of SZP into the culture media increased in a time-dependent manner (Day 1<Day 2<Day 3). Therefore the culture of media of Day 3 was used for all the studies.

heme oxygenase-1 [9] = conditions: Liby et al., 2005; cited from earlier work

Row | Compound | alkaline phosphatase in the calvarial culture media [7] | cartilage formation [7] | new bone formation [7] | SZP synthesis at lower concentrations [8] | SZP synthesis at higher concentrations [8] | SZP synthesis at higher concentrations with concurrent TGF-β1 [8] | other results
1 | CC1(C)C(=O)C(C#N)=CC2(C)C3=CC(=O)C(C#N)=C(C#C[Si](C)(C)C)C3CCC12 (racemic) [TBE-31] |  |  |  |  |  |  | iNOS in RAW cells (iNOS in RAW cells): inhibits iNOS; potency in heme oxygenase-1 induction compared with CDDO and CDDO-Im (heme oxygenase-1 [1]; comparison): much higher than CDDO and equal to CDDO-Im; in vivo heme oxygenase-1 induction (heme oxygenase-1 [1]; oral): orally active; CD11b expression in U937 cells [2]: induces CD11b expression; potency for CD11b induction compared with CDDO and CDDO-Im ([2]; comparison): much higher than CDDO and CDDO-Im; proliferation of U937 human leukemia cells [3]: inhibits proliferation; potency for inhibition of NO production in RAW cells (RAW cells): extremely potent at one nanomolar concentrations; potency for NO inhibition in RAW cells compared with CDDO and TP-225 (RAW cells; comparison): much higher than CDDO and equal to TP-225; induction of heme oxygenase-1 in U937 cells [4]: potent inducer; proliferation of RMPI 8226 human myeloma cells [5]: inhibits proliferation
2 | CC1(C)C(=O)C(C#N)=C[C@]2(C)C3=CC(=O)C(C#N)=C[C@]3(C)CC[C@@H]12 [(−)-TBE-9] |  |  |  |  |  |  | activity against MCF-7 cell lines [6]: active
3 | CC1(C)CC[C@]2(C(=O)O)CC[C@]3(C)[C@H](C(=O)C=C4[C@@]5(C)C=C(C#N)C(=O)C(C)(C)[C@@H]5CC[C@]43C)[C@@H]2C1 [TP-151, 2-cyano-3,12-dioxooleane-1,9(11)-dien-28-oic acid] | increases | No evidence of cartilage formation | Significant increase | up-regulated SZP synthesis | down-regulated SZP synthesis in a dose-dependent manner | the same trend | 
4 | COC(=O)[C@]12CCC(C)(C)C[C@H]1[C@H]1C(=O)C=C3[C@@]4(C)C=C(C#N)C(=O)C(C)(C)[C@@H]4CC[C@@]3(C)[C@]1(C)CC2 [TP-155] | increases | Some evidence of cartilage formation was seen in these cultures (FIG. 3) however this was not significant | Significant increase | up-regulated SZP synthesis | down-regulated SZP synthesis in a dose-dependent manner | the same trend | 
5 | CC1(C)CC[C@]2(C(=O)n3ccnc3)CC[C@]3(C)[C@H](C(=O)C=C4[C@@]5(C)C=C(C#N)C(=O)C(C)(C)[C@@H]5CC[C@]43C)[C@@H]2C1 [TP-235] | no convincing change | No evidence of cartilage formation |  | no obvious effects | down-regulated SZP synthesis in a dose-dependent manner | the same trend | potency in heme oxygenase-1 induction assay (literature) (heme oxygenase-1 [9]): highest potency amongst semi-synthetic triterpenoids; new bone formation at 40 nM ([7]; at 40 nM, 7 days (FIG. 7)): Significant increase
6 | CCNC(=O)[C@]12CCC(C)(C)C[C@H]1[C@H]1C(=O)C=C3[C@@]4(C)C=C(C#N)C(=O)C(C)(C)[C@@H]4CC[C@@]3(C)[C@]1(C)CC2 [TP-319] | dose responsive increases | clear evidence increases in cartilage formation | Some increases | no obvious effects | down-regulated SZP synthesis in a dose-dependent manner | the same trend | 
7 | TGF-β1: Recombinant human TGF-β1 |  |  |  |  |  |  | SZP synthesis (TGF-β1) ([8]; 0.4-120 pM): up-regulate SZP synthesis in a dose-dependent manner
